Data as given in ChEMBL document CHEMBL3120091, “Microwave-assisted synthesis and myorelaxant activity of 9-indolyl-1,8-acridinedione derivatives” (2014).
The source made the active and inactive calls. No cut-off for these calls is given here.

Key:
Stomach [1] = experiment: Myorelaxant activity in New Zealand white rabbit gastric fundus smooth muscle assessed as relaxation of noradrenaline-induced contraction; format: functional, Oryctolagus cuniculus
Stomach [2] = experiment: Myorelaxant activity in New Zealand white rabbit gastric fundus smooth muscle assessed as relaxation of noradrenaline-induced contraction in presence of glibenclamide; format: functional, tissue-based; settings: Oryctolagus cuniculus
Stomach [3] = experiment: Myorelaxant activity in New Zealand white rabbit gastric fundus smooth muscle assessed as relaxation of noradrenaline-induced contraction at 3 x 10^-4 M relative to control; format: functional; settings: Oryctolagus cuniculus
Stomach [4] = experiment: Myorelaxant activity in New Zealand white rabbit gastric fundus smooth muscle assessed as relaxation of noradrenaline-induced contraction in presence of tetraethylammonium chloride; format: functional, tissue-based; settings: Oryctolagus cuniculus
Stomach [5] = experiment: Myorelaxant activity in New Zealand white rabbit gastric fundus smooth muscle assessed as relaxation of noradrenaline-induced contraction in presence of propranolol; format: functional, tissue-based; settings: Oryctolagus cuniculus
Stomach [6] = experiment: Myorelaxant activity in New Zealand white rabbit gastric fundus smooth muscle assessed as relaxation of noradrenaline-induced contraction in presence of indomethacin; format: functional, tissue-based; settings: Oryctolagus cuniculus
Stomach [7] = experiment: Myorelaxant activity in New Zealand white rabbit gastric fundus smooth muscle assessed as relaxation of noradrenaline-induced contraction in presence of L-NAME; format: functional, tissue-based; settings: Oryctolagus cuniculus

SMILES	pD2 (Stomach [1])	Activity (Stomach [2])	Emax at 300 µM (Stomach [3])	Activity (Stomach [4])	pD2 (Stomach [1]; Oryctolagus cuniculus)	Activity (Stomach [5])	Emax (Stomach [3])	Activity (Stomach [6])	Activity (Stomach [7])
CC1(C)CC(=O)C2=C(C1)NC1=C(C(=O)CC(C)(C)C1)C2c1c[nH]c2cc(Br)ccc12	4.25	Active	52.7%	Active	–	–	–	–	–
CC1(C)CCC2=C(C1=O)C(c1c[nH]c3cc(Br)ccc13)C1=C(CCC(C)(C)C1=O)N2	4.54	Active	12%	Active	–	–	–	–	–
Cn1cc(C2C3=C(CC(C)(C)CC3=O)NC3=C2C(=O)CC(C)(C)C3)c2ccccc21	4.28	Active	28.6%	Active	–	–	–	–	–
O=C1CCCC2=C1C(c1c[nH]c3ccc(Br)cc13)C1=C(CCCC1=O)N2	–	–	–	–	inactive	Active	inactive	Active	Active
Cn1cc(C2C3=C(CCC(C)(C)C3=O)NC3=C2C(=O)C(C)(C)CC3)c2ccccc21	–	–	–	–	inactive	Active	inactive	Active	Active
Cn1cc(C2C3=C(CCCC3=O)NC3=C2C(=O)CCC3)c2ccccc21	–	–	–	–	inactive	Active	inactive	Active	Active
Cn1c(C2C3=C(CC(C)(C)CC3=O)NC3=C2C(=O)CC(C)(C)C3)cc2ccccc21	4.1	Active	34%	Active	–	–	–	–	–
Cn1c(C2C3=C(CCCC3=O)NC3=C2C(=O)CCC3)cc2ccccc21	–	–	–	–	inactive	Active	inactive	Active	Active
CC1(C)CCC2=C(C1=O)C(c1c[nH]c3ccc(Br)cc13)C1=C(CCC(C)(C)C1=O)N2	4.46	Active	17.5%	Active	–	–	–	–	–
CC1(C)CC(=O)C2=C(C1)NC1=C(C(=O)CC(C)(C)C1)C2c1c[nH]c2ccc(Br)cc12	3.85	Active	71.5%	Active	–	–	–	–	–
CC(N/C(=N\C#N)Nc1ccncc1)C(C)(C)C (stereo not given) [PINACIDIL ANHYDROUS]	3.9	–	63.8%	–	–	–	–	–	–
O=C1CCCC2=C1C(c1c[nH]c3cc(Br)ccc13)C1=C(CCCC1=O)N2	–	–	–	–	inactive	Active	inactive	Active	Active
Cn1c(C2C3=C(CCC(C)(C)C3=O)NC3=C2C(=O)C(C)(C)CC3)cc2ccccc21	4.6	Active	11.6%	Active	–	–	–	–	–
